Tests used:
Cooperia oncophora = assay: Anthelmintic activity, single oral dose in experimentally infected sheep: residual worm burden vs untreated control; format: in vivo; conditions: 8 days after treatment
Procedure: (§1) Four "Parasite-free" sheep were exposed to infection with infective L3 of H. contortus, O. circumcincta, T. axei, T. colubriformis, C. curticei, C. oncophora, and Oe. columbianum. Twenty-four days after the last oral dose of infective larvae, when the infections were patent, three of the sheep were randomly assigned to treatment with either 6, 3 or 1 mg/kg body weight of paraherquamide as a single oral dose. The fourth sheep was maintained as an untreated control. All treatments were administered as solutions at a volume of 0.2 ml/kg P.O.: 6 mg/kg as a solution containing 30 mg/ml; 3 mg/kg as a solution containing 15 mg/ml; 1 mg/kg as a solution containing 5 mg/ml. The vehicle used was a mixture of dimethylsulfoxide: propylene glycol:miglyol (1.5:5:3.5).
(§2) Eight days following treatment the treated and control sheep were sacrificed and their residual worm burdens were recovered and identified using standard procedures. The worm burdens of the treated sheep were compared with that of the untreated control and the evaluations are tabulated as Table 1.

[1] = test system: Oesophagostomum columbianum; assay: as above; format: in vivo; conditions: 8 days after treatment, control worm burden 7
Procedure: as §1, §2

Trichostrongylus axei = assay: as above; format: in vivo; conditions: 8 days after treatment
Procedure: as §1, §2

Cooperia spp. = assay: as above; format: in vivo; conditions: 8 days after treatment
Procedure: as §1, §2

[2] = test system: Trichostrongylus colubriformis (benzimidazole resistant isolate); assay: as above; format: in vivo; conditions: 8 days after treatment
Procedure: as §1, §2

Cooperia curticei = assay: as above; format: in vivo; conditions: 8 days after treatment
Procedure: as §1, §2

Ostertagia circumcincta = assay: as above; format: in vivo; conditions: 8 days after treatment; for Efficacy, Ostertagia circumcincta L4: L4 stage; for Efficacy, Ostertagia circumcincta, Adult: adult stage
Procedure: as §1, §2

[3] = test system: Haemonchus contortus (benzimidazole resistant isolate); assay: as above; format: in vivo; conditions: 8 days after treatment
Procedure: as §1, §2

[4] = test system: Dermacentor albipictus larvae; assay: Tick larvae immersion test; conditions: same suspension of crude extract as Example 13, 2 ml whole broth equivalent, immersed 10 minutes
Procedure: The same suspension used in Example 13 was used at a concentration of 2 ml whole broth equivalent to screen for activity against tick larvae. For this test Dermacentor albipictus larvae were immersed in 2 ml whole broth equivalent Paraherquamide for 10 minutes. The liquid was then removed with vacuum retaining the ticks on drug-impregnated filter paper.

Solubility = format: physicochemical
[5] = test system: H. contortus, O. circumcincta, T. axei, T. colubriformis, C. curticei, C. oncophora, and Oe. columbianum; assay: Fecal worm egg counts of treated infected sheep; format: in vivo; conditions: 3 treated sheep (6, 3 or 1 mg/kg P.O. single dose), four days following treatment, from 4,000-20,000 EPG
Procedure: as §1

**Q.** With CN1C(=O)C23CC4C1(CN2CCC3(C)O)CC1(C(=O)Nc2c1ccc1c2OC=CC(C)(C)O1)C4(C)C (stereo not shown) [Paraherquamide] as the compound, how does the “Efficacy, Cooperia oncophora” value (Cooperia oncophora; 1.0 mg/kg P.O. single dose) read?
**A.** 3 (≥91% effective)

**Q.** And the “Efficacy, Cooperia oncophora” value (Cooperia oncophora; 3.0 mg/kg P.O. single dose)?
**A.** 3 (≥91% effective)

**Q.** And the “Efficacy, Cooperia oncophora” value (Cooperia oncophora; 6.0 mg/kg P.O. single dose)?
**A.** 3 (≥91% effective)

**Q.** What about the “Efficacy, Oesophagostomum columbianum” value ([1]; 1.0 mg/kg P.O. single dose) of the same compound?
**A.** 0 (0-50% effective)

**Q.** What about the “Efficacy, Oesophagostomum columbianum” value ([1]; 3.0 mg/kg P.O. single dose) of the same compound?
**A.** 3 (≥91% effective)

**Q.** And the “Efficacy, Oesophagostomum columbianum” value ([1]; 6.0 mg/kg P.O. single dose)?
**A.** 3 (≥91% effective)

**Q.** And the “Efficacy, Trichostrongylus axei” value (Trichostrongylus axei; 1.0 mg/kg P.O. single dose)?
**A.** 3 (≥91% effective)

**Q.** And the “Efficacy, Trichostrongylus axei” value (Trichostrongylus axei; 3.0 mg/kg P.O. single dose)?
**A.** 3 (≥91% effective)

**Q.** And the “Efficacy, Trichostrongylus axei” value (Trichostrongylus axei; 6.0 mg/kg P.O. single dose)?
**A.** 3 (≥91% effective)

**Q.** And the “Efficacy, Cooperia spp.” value (Cooperia spp.; 1.0 mg/kg P.O. single dose)?
**A.** 3 (≥91% effective)

**Q.** And the “Efficacy, Cooperia spp.” value (Cooperia spp.; 3.0 mg/kg P.O. single dose)?
**A.** 3 (≥91% effective)

**Q.** What about the “Efficacy, Cooperia spp.” value (Cooperia spp.; 6.0 mg/kg P.O. single dose) of the same compound?
**A.** 3 (≥91% effective)

**Q.** What about the “Efficacy, Trichostrongylus colubriformis” value ([2]; 1.0 mg/kg P.O. single dose) of the same compound?
**A.** 3 (≥91% effective)

**Q.** What about the “Efficacy, Trichostrongylus colubriformis” value ([2]; 3.0 mg/kg P.O. single dose) of the same compound?
**A.** 3 (≥91% effective)

**Q.** What about the “Efficacy, Trichostrongylus colubriformis” value ([2]; 6.0 mg/kg P.O. single dose) of the same compound?
**A.** 3 (≥91% effective)

**Q.** And the “Efficacy, Cooperia curticei” value (Cooperia curticei; 1.0 mg/kg P.O. single dose)?
**A.** 3 (≥91% effective)

**Q.** What about the “Efficacy, Cooperia curticei” value (Cooperia curticei; 3.0 mg/kg P.O. single dose) of the same compound?
**A.** 3 (≥91% effective)

**Q.** And the “Efficacy, Cooperia curticei” value (Cooperia curticei; 6.0 mg/kg P.O. single dose)?
**A.** 3 (≥91% effective)

**Q.** What about the “Efficacy, Ostertagia circumcincta L4” value (Ostertagia circumcincta; 1.0 mg/kg P.O. single dose) of the same compound?
**A.** 2 (76-90% effective)

**Q.** And the “Efficacy, Ostertagia circumcincta L4” value (Ostertagia circumcincta; 3.0 mg/kg P.O. single dose)?
**A.** 3 (≥91% effective)

**Q.** And the “Efficacy, Ostertagia circumcincta L4” value (Ostertagia circumcincta; 6.0 mg/kg P.O. single dose)?
**A.** 3 (≥91% effective)

**Q.** What about the “Efficacy, Ostertagia circumcincta, Adult” value (Ostertagia circumcincta; 1.0 mg/kg P.O. single dose) of the same compound?
**A.** 3 (≥91% effective)

**Q.** What about the “Efficacy, Ostertagia circumcincta, Adult” value (Ostertagia circumcincta; 3.0 mg/kg P.O. single dose) of the same compound?
**A.** 3 (≥91% effective)

**Q.** What about the “Efficacy, Ostertagia circumcincta, Adult” value (Ostertagia circumcincta; 6.0 mg/kg P.O. single dose) of the same compound?
**A.** 2 (76-90% effective)

**Q.** What about the “Efficacy, Haemonchus contortus” value ([3]; 1.0 mg/kg P.O. single dose) of the same compound?
**A.** 3 (≥91% effective)

**Q.** And the “Efficacy, Haemonchus contortus” value ([3]; 3.0 mg/kg P.O. single dose)?
**A.** 3 (≥91% effective)

**Q.** And the “Efficacy, Haemonchus contortus” value ([3]; 6.0 mg/kg P.O. single dose)?
**A.** 3 (≥91% effective)

**Q.** And the “activity against tick larvae” value [4]?
**A.** rapidly and completely active

**Q.** And the “solubility in organic solvents” value (Solubility; organic solvents)?
**A.** soluble

**Q.** What about the solubility in water (Solubility; water) of the same compound?
**A.** slight solubility

**Q.** And the “fecal worm egg counts” value [5]?
**A.** barely detectable or undetectable level
